Patent US20130245110A1, “USE FOR CANNABINOIDS” (priority 2008, published 2013)
Where “and” joins values, the source holds several entries; their conditions need not be identical. Identical values can stand only once.

Tests used:
[1] = test system: C57B1/6 ob/ob mouse; experiment: Fed plasma cholesterol; assay type: in vivo; settings: ob/ob mice, individual values
Method: Blood samples were also taken at −30 minutes for insulin analysis. • e) Blood Glucose analysis: Duplicate 20 μl samples of blood of were taken for each individual sample and placed in a 96-well assay plate. To each well was added 180 μl aliquots of glucose oxidase reagent. Samples were mixed and then left for approximately 30 minutes. Samples were then analysed automatically using a SpectraMax-250 and SoftMax Pro software. • f) Plasma preparation: Blood was collected for the measurement of i) plasma insulin, ii) cholesterol, iii) free fatty acids or iv) triglyceride concentration. • i. Plasma insulin analysis: Plasma insulin was measured using 5 μl of plasma, compared with a mouse insulin standard using a 96-well micro-assay plate • ii. Plasma cholesterol analysis: To each sample was added 200 μl of infinity cholesterol liquid stable reagent. The samples were mixed and incubated for 5 minutes before reading at dual wavelengths of 500 and 660 nm. • iii. Plasma free fatty acids: 5 μl samples of plasma were measured into a 96-well assay plate, to which was added 0.2 ml of reagents NEFA C • iv. Plasma triglycerides analysis: To each well 200 μl aliquots of triglycerides reagent. […] Comparison with a calibrated standard allowed identification of types of tissue by their density. Dedicated software was using to quantify amounts of bone and fat. The mice were lightly anaesthetised, sufficient to keep them quiescent during this non-invasive technique. • h) Energy expenditure measurements: Energy expenditure was measured by open circuit indirect calorimetry with mice in their home cages. For studies of 24 h energy expenditure, mice were dosed with their allocated treatment and then measurements commenced. […] Plasma leptin was measured in fed mice using the Crystal Chem Elisa assay. • j) Plasma adiponectin: Adiponectin exerts some of its weight reduction effects via the brain. […] Plasma adiponectin was measured in overnight fasted mice using the 96-well B-Bridge Elisa assay. • k) Plasma HDL-cholesterol: Plasma HDL-cholesterol was measured in fed mice using the kit from Trinity Biotech. • l) 24 h blood glucose profile: This was determined in order to ensure that changes in the diurnal control of blood glucose were detected. Thus blood samples were obtained at three hourly intervals throughout a continuous 24 h period. • m) Plasma haemoglobin AIC: Samples (10 μl) were analysed using the AIC. […] Morphology was assessed using hematoxylin and eosin staining. • p) Liver glycogen: After centrifugation (3000×g for 15 min), an aliquot of the supernatant (10 μl) is assayed using the glucose oxidase method. […] The residue is dissolved in 200 μl ethanol and triglyceride content measured. […]

[2] = test system: C57B1/6 ob/ob mouse; experiment: Thermic effect of a Complan meal: 3-hour energy expenditure; assay type: in vivo; design: unit not given here; settings: ob/ob mice, day 17
[3] = test system: rat isolated aortae; experiment: In vitro vascular studies by wire myography; settings: for Time-dependent relaxation of pre-contracted aorta: 2 h (120 min)
[4] = 3.0 mg·kg−1 daily oral gavage (combination: both 3.0)

Row | Structure (SMILES) | Fed plasma cholesterol day 28 ([1]; 0.3 mg·kg−1 daily oral gavage (combination: both 0.3)) | Fed plasma cholesterol day 28 [1, 4] | Thermic effect of a meal: 3-hour energy expenditure per animal ([2]; 0.3 mg/kg daily oral gavage (combination: both 0.3 mg/kg)) | Thermic effect of a meal: 3-hour energy expenditure per animal ([2]; 3.0 mg/kg daily oral gavage (combination: both 3.0 mg/kg)) | Thermic effect of a meal: 3-hour energy expenditure per animal ([2]; 3.0 mg/kg daily oral gavage (combination: both 3.0 mg/kg), listed as pure THCV) | Time without effect on tone ([3]; pre-contracted aortae, 10 μM) | Time-dependent relaxation of pre-contracted aorta ([3]; rat aorta, 10 μM) | Fed plasma cholesterol day 28 ([1]; 3.0 mg·kg−1 daily oral gavage (combination: both 3.0), listed as Pure CBD) | Thermic effect of a meal: 3-hour energy expenditure per animal ([2]; 3.0 mg/kg daily oral gavage (combination: both 3.0 mg/kg), listed as pure CBD) | Potency and maximal contractile response to re-introduction of calcium ([3]; calcium free, high potassium Krebs-Hensleit solution, CBD from 1 μM to 30 μM) | Vasorelaxant effect in arteries contracted with high potassium buffer ([3]; compared with control) | Vasorelaxant effect, tone induced with U46619 in calcium free buffer ([3]; compared with control) | Vasorelaxant effect in endothelium-denuded versus control aortae ([3]; rat aorta) | Residual relaxation (vasorelaxant effect minus effect of vehicle and time) ([3]; rat aorta, 10 μM, after 2 h) | Basal tension over time ([3]; rat aorta, 2 h) | Time-dependent vascular responses in the presence of AM251 ([3]; rat aorta, CB1 antagonist AM251 1 μM) | Residual vasorelaxant effects in the presence of SR144528 ([3]; rat aorta, CB2 antagonist SR144528 1 μM, between 45 min to 90 min) | Residual vasorelaxant effect in the presence of L-NAME ([3]; rat aorta, L-NAME 300 μM, versus control conditions) | Residual vasorelaxant effect in the presence of GW9662 ([3]; rat aorta, PPARγ antagonist GW9662 1 μM, after 1 h of incubation) | Vascular response over time after pre-treatment with PTX or capsaicin ([3]; rat arteries, PTX 200 ng ml−1, 2 h or capsaicin 10 μM, 1 h)
1 | CCCc1cc(O)c2c(c1)OC(C)(C)[C@@H]1CCC(C)=C[C@@H]21 [THCV, tetrahydrocannabivarin] | 7.12 and 8.60 and 6.43 and 5.99 and 6.21 and 6.45 and 5.93 and 5.62 | 6.30 and 6.94 and 6.59 and 6.20 and 7.22 and 6.46 and 7.66 and 7.05 | 8.18 and 7.04 | 8.94 and 8.79 | significant effect | > 105 min | 28.7±4.6 % relaxation |  |  |  |  |  |  |  |  |  |  |  |  | 
2 | C=C(C)[C@@H]1CCC(C)=C[C@H]1c1c(O)cc(CCCCC)cc1O [CBD, cannabidiol] |  | reduced the total plasma cholesterol concentration and 3.64 and 4.22 and 3.77 and 5.02 and 2.90 and 5.38 and 3.50 |  |  |  |  | 69.7±4.0 % relaxation | reduced the total plasma cholesterol | did not significantly increase energy expenditure | significantly reduced in a concentration-dependent manner | no difference | significantly blunted | similar | 50.1±3.3 % relaxation | -0.03 ± 0.01 g | did not significantly affect | significantly inhibited | not different | significantly reduced | no effect
